The record followed here is US10316017B2, “COT modulators and methods of use thereof” (Gilead Sciences, Inc., priority 2015, dated 2019).

Some results are limits rather than exact numbers.

The subject of assay [1] is TNFα production in LPS-stimulated human monocytes. Kind of assay: Cot Monocyte TNFα Cell Based Assay. Conditions: Homo sapiens, Monocyte, TNFα in LPS-stimulated human monocytes; read-out: EC50 TNF. Summed up:
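Human monocytes (5,000 cells/well) pretreated with compound for 1 hour at 37° C (0.5% DMSO), then stimulated with 50 pg/ml LPS for 4 hours. Total TNFα measured by TR-FRET after overnight antibody incubation at room temp, expressed as percent of control between unstimulated and stimulated cells.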

The target in assay [2] is T1, human Cot catalytic domain (30-397 amino acids) (Homo sapiens, UniProt P41279).
T1 construct: Purified recombinant human Cot catalytic domain (30-397 amino acids) was purchased from Cama Biosciences; purchased Cama Biosciences (so in the source)
Kind of assay: High Throughput Cot Biochemical Assay (KinEASE TR-FRET). As to conditions: Cot KinEASE TR-FRET (HTRF) biochemical assay, 400 μM ATP; read-out: IC50 HTRF. In short, it runs like this: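 Recombinant human Cot catalytic domain (aa 30-397), 5 nM, with 1 μM STK3 peptide and 400 μM ATP in MOPS pH 7.0 buffer with MgOAc, DTT, BSA, NP-40, glycerol, 0.1% DMSO. Phosphorylated XL665-peptide detected by Eu-[…] antibody TR-FRET.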
(In general: Time-resolved FRET reads energy transfer from a long-lived donor to a nearby acceptor.)

T1 sequence (P41279 30-397): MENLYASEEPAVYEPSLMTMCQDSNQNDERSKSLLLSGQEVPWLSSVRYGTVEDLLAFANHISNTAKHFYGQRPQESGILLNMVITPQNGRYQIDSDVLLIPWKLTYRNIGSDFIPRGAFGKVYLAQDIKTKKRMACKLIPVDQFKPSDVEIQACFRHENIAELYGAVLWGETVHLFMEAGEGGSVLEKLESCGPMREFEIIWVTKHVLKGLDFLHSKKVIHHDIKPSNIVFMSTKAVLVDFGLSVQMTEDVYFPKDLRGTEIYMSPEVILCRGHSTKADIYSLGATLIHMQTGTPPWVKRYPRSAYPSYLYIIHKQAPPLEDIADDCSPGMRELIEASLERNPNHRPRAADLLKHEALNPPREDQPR

By EC50 is commonly meant the concentration needed to bring the measured effect to its halfway point. Broadly, the IC50 is the concentration needed to halve the response being measured. For `[2H][C@](Nc1cc(Cl)c2ncc(C#N)c(Nc3cnc(F)c(F)c3)c2c1)(c1ccc(F)cc1)c1cn(C2CS(=O)(=O)C2)nn1` [Example 359, (S)-8-chloro-4-((5,6-difluoropyridin-3-yl)amino)-6-(((1-(1,1-dioxidothietan-3-yl)-1H-1,2,3-triazol-4-yl)(4-fluorophenyl)methyl-d)amino)quinoline-3-carbonitrile], in assay [1], the EC50 turned out to be 2.26 µM. The IC50 in assay [2] was 0.053 µM.

Take `[2H][C@](Nc1cc(Cl)c2ncc(C#N)c(Nc3cnc(F)c(F)c3)c2c1)(c1ccc(F)cc1)c1cn([C@@H](C)CF)nn1` [Example 360, 8-chloro-4-((5,6-difluoropyridin-3-yl)amino)-6-(((S)-(4-fluorophenyl)(1-((S)-1-fluoropropan-2-yl)-1H-1,2,3-triazol-4-yl)methyl-d)amino)quinoline-3-carbonitrile]: the EC50 in assay [1] is 0.423 µM. The IC50 in assay [2] turned out to be 0.021 µM.

On to `CC(C)n1cc([C@@H](Nc2cc(Cl)c3ncc(C#N)c(NC(CC#N)c4ccccc4)c3c2)c2ccc(F)cc2)nn1` (stereo partly drawn) [Example 362, 8-chloro-4-((2-cyano-1-phenylethyl)amino)-6-(((S)-(4-fluorophenyl)(1-isopropyl-1H-1,2,3-triazol-4-yl)methyl)amino)quinoline-3-carbonitrile], for which the EC50 in assay [1] is 0.083 µM. For the same molecule, the IC50 in assay [2] came out at 0.005 µM.

As for `CC(C)n1cc([C@@H](Nc2cc(Cl)c3ncc(C#N)c(N[C@H](c4ccccc4)C(F)(F)F)c3c2)c2ccc(F)cc2)nn1` [Example 363, 8-chloro-6-(((S)-(4-fluorophenyl)(1-isopropyl-1H-1,2,3-triazol-4-yl)methyl)amino)-4-(((R)-2,2,2-trifluoro-1-phenylethyl)amino)quinoline-3-carbonitrile], the EC50 in assay [1] is above 10 µM. The IC50 in assay [2] was 0.874 µM.

`CC(C)n1cc([C@@H](Nc2cc(Cl)c3ncc(C#N)c(N[C@@H](c4ccccc4)C(F)(F)F)c3c2)c2ccc(F)cc2)nn1` [Example 364, 8-chloro-6-(((S)-(4-fluorophenyl)(1-isopropyl-1H-1,2,3-triazol-4-yl)methyl)amino)-4-(((S)-2,2,2-trifluoro-1-phenylethyl)amino)quinoline-3-carbonitrile]: in assay [1], the EC50 worked out at 0.631 µM. In assay [2], the IC50 amounted to 0.048 µM.

As to `CC[C@@H](Nc1c(C#N)cnc2c(Cl)cc(N[C@@H](c3ccc(F)cc3)c3cn(C(C)C)nn3)cc12)c1ccc(C)cc1` [Example 365, 8-chloro-6-(((S)-(4-fluorophenyl)(1-isopropyl-1H-1,2,3-triazol-4-yl)methyl)amino)-4-(((R)-1-(p-tolyl)propyl)amino)quinoline-3-carbonitrile], the EC50 in assay [1] worked out at 9.33 µM. In addition, in assay [2], the IC50 was found to be 0.868 µM.

For `CC[C@@H](Nc1c(C#N)cnc2c(Cl)cc(N[C@@H](c3ccc(F)cc3)c3cn(C(C)C)nn3)cc12)c1ccccc1C` [Example 366, 8-chloro-6-(((S)-(4-fluorophenyl)(1-isopropyl-1H-1,2,3-triazol-4-yl)methyl)amino)-4-(((R)-1-(o-tolyl)propyl)amino)quinoline-3-carbonitrile], in assay [1], the half-maximal effective concentration (EC50) was found to be 1.3 µM. The IC50 in assay [2] stood at 0.11 µM.

Take `N#Cc1cnc2c(Cl)cc(N[C@@H](c3ccc(F)cc3)c3c[nH]nn3)cc2c1Nc1ccc(F)cc1F` [Example 367, (S)-8-chloro-4-((2,4-difluorophenyl)amino)-6-(((4-fluorophenyl)(1H-1,2,3-triazol-4-yl)methyl)amino)quinoline-3-carbonitrile]: the EC50 in assay [1] was 3.85 µM. For the same molecule, the IC50 in assay [2] turned out to be 0.297 µM.

For `N#Cc1cnc2c(Cl)cc(N[C@@H](c3ccc(F)cc3)c3c[nH]nn3)cc2c1Nc1ccc(F)c(F)c1` [Example 368, (S)-8-chloro-4-((3,4-difluorophenyl)amino)-6-(((4-fluorophenyl)(1H-1,2,3-triazol-4-yl)methyl)amino)quinoline-3-carbonitrile], in assay [1], the EC50 turned out to be 1.13 µM. In addition, the IC50 in assay [2] was determined as 0.05 µM.

Turning to `[2H][C@](Nc1cc(Cl)c2ncc(C#N)c(Nc3cnc(F)c(F)c3)c2c1)(c1cccc(C#N)c1)c1cn(C2CC2)nn1` [Example 369, (S)-8-chloro-6-(((3-cyanophenyl)(1-cyclopropyl-1H-1,2,3-triazol-4-yl)methyl-d)amino)-4-((5,6-difluoropyridin-3-yl)amino)quinoline-3-carbonitrile], the EC50 in assay [1] was 0.093 µM. Moreover, the IC50 in assay [2] amounted to 0.004 µM.

For `[2H][C@](Nc1cc(Cl)c2ncc(C#N)c(Nc3cnc(F)c(F)c3)c2c1)(c1cccc(C#N)c1)c1c[nH]nn1` [Example 370, (S)-8-chloro-6-(((3-cyanophenyl)(1H-1,2,3-triazol-4-yl)methyl-d)amino)-4-((5,6-difluoropyridin-3-yl)amino)quinoline-3-carbonitrile], the EC50 in assay [1] was 0.417 µM. Besides, the IC50 in assay [2] is 0.005 µM.

Turning to `[2H][C@](Nc1cc(Cl)c2ncc(C#N)c(Nc3cnc(F)c(F)c3)c2c1)(c1ccc(F)cc1)c1cn(C2(C(F)(F)F)CC2)nn1` [Example 371, (S)-8-chloro-4-((5,6-difluoropyridin-3-yl)amino)-6-(((4-fluorophenyl)(1-(1-(trifluoromethyl)cyclopropyl)-1H-1,2,3-triazol-4-yl)methyl-d)amino)quinoline-3-carbonitrile], in assay [1], the EC50 stood at 0.877 µM. In assay [2], the IC50 is 0.154 µM.

Turning to `N#Cc1cc([C@H](Nc2cc(Cl)c3ncc(C#N)c(Nc4cnc(F)c(F)c4)c3c2)c2c[nH]nn2)ccc1F` [Example 372, (S)-8-chloro-6-(((3-cyano-4-fluorophenyl)(1H-1,2,3-triazol-4-yl)methyl)amino)-4-((5,6-difluoropyridin-3-yl)amino)quinoline-3-carbonitrile], the EC50 in assay [1] turned out to be 0.771 µM. The IC50 in assay [2] is 0.011 µM.

On to `N#Cc1cnc2c(Cl)cc(N[C@@H](c3ccc(F)cc3)c3c[nH]nn3)cc2c1Nc1cccnc1F` [Example 373, (S)-8-chloro-6-(((4-fluorophenyl)(1H-1,2,3-triazol-4-yl)methyl)amino)-4-((2-fluoropyridin-3-yl)amino)quinoline-3-carbonitrile], for which the EC50 in assay [1] turned out to be 7.52 µM. For the same molecule, the IC50 in assay [2] came to 3.01 µM.

Take `N#Cc1cnc2c(Cl)cc(N[C@@H](c3ccc(F)cc3)c3c[nH]nn3)cc2c1Nc1ccc(F)nc1` [Example 374, (S)-8-chloro-6-(((4-fluorophenyl)(1H-1,2,3-triazol-4-yl)methyl)amino)-4-((6-fluoropyridin-3-yl)amino)quinoline-3-carbonitrile]: the EC50 in assay [1] came to 3.84 µM. For the same molecule, in assay [2], the IC50 is 0.161 µM.

`Cc1cc(Nc2c(C#N)cnc3c(Cl)cc(N[C@@H](c4ccc(F)cc4)c4c[nH]nn4)cc23)cnc1F` [Example 375, (S)-8-chloro-4-((6-fluoro-5-methylpyridin-3-yl)amino)-6-(((4-fluorophenyl)(1H-1,2,3-triazol-4-yl)methyl)amino) quinoline-3-carbonitrile]: the EC50 in assay [1] is 1.26 µM. In addition, the IC50 in assay [2] was determined as 0.048 µM.

As to `N#Cc1cnc2c(Cl)cc(N[C@H](c3c[nH]nn3)c3ccccc3Cl)cc2c1Nc1cnc(F)c(F)c1` [Example 376, (S)-8-chloro-6-(((2-chlorophenyl)(1H-1,2,3-triazol-4-yl)methyl)amino)-4-((5,6-difluoropyridin-3-yl)amino)quinoline-3-carbonitrile], the EC50 in assay [1] was determined as 1.61 µM. For the same molecule, the IC50 in assay [2] turned out to be 0.047 µM.
